In patent publication US20150023972A1, “COMBINATION PHARMACEUTICAL COMPOSITION AND METHODS OF TREATING AND PREVENTING THE INFECTIOUS DISEASES” (priority 2010, published 2015):
Like-named read-outs stand apart in the source and are kept apart here. Marks after values point to notes of the source that are not given here.

What was measured:
[1] = tested on: influenza virus A/California/07/2009swl (H1N1); type: in vivo, mice; conditions: 10th day after infection; for Survival, % 10LD50: female Balb/c mice, intragastric
[2] = tested on: influenza virus A/California/07/2009swl (H1N1); type: in vivo, mice; conditions: 10th day after infection; for Survival, % 10LD50: female Balb/c mice, intragastric; remark: listed apart in the source
influenza = experiment: open-label comparative controlled clinical study versus Tamiflu in influenza; type: in vivo, human
[3] = Morning Day 1, 37.0° C. and lower

## CCOC(=O)C1=C[C@@H](OC(CC)CC)[C@H](NC(C)=O)[C@@H](N)C1 [Oseltamivir]
[1]; stage 1
  Difference between % of survival in the group that received medication and % of survival in the group that received distilled water: +60%
  Survival, % 10LD50: 80* %
[1]; stage 2
  Difference between % of survival in the group that received medication and % of survival in the group that received distilled water: +65%
  Survival, % 10LD50: 70* %
[2]; stage 1
  Difference between % of survival in the group that received medication and % of survival in the group that received distilled water: +60%
  Survival, % 10LD50: 80* %
[2]; stage 2
  Difference between % of survival in the group that received medication and % of survival in the group that received distilled water: +65%
  Survival, % 10LD50: 70* %
influenza; Evening Day 2
  Mean values of body temperature, M ± SD: 36.9 ± 0.53 °C
  Proportion of patients with normal temperature, %: 45.5%
  The number of patients with normal temperature: 5
influenza; Evening, Day 1
  Mean values of body temperature, M ± SD: 37.3 ± 0.71 °C
  Proportion of patients with normal temperature, %: 9.1%
  The number of patients with normal temperature: 1
influenza; Evening, Day 3
  Mean values of body temperature, M ± SD: 36.7 ± 0.46 °C
  Proportion of patients with normal temperature, %: 54.5%
  The number of patients with normal temperature: 6
influenza; Evening, Day 4
  Mean values of body temperature, M ± SD: 36.5 ± 0.38 °C
  Proportion of patients with normal temperature, %: 80.0%
  The number of patients with normal temperature: 8
influenza; Evening, Day 5
  Mean values of body temperature, M ± SD: 36.5 ± 0.21 °C
  Proportion of patients with normal temperature, %: 90.0%
  The number of patients with normal temperature: 9
influenza; Evening, Day 6
  Mean values of body temperature, M ± SD: 36.3 ± 0.19 °C
  Proportion of patients with normal temperature, %: 100.0%
  The number of patients with normal temperature: 7
influenza; Evening, Day 7
  Mean values of body temperature, M ± SD: 36.6 ± 0.12 °C
  Proportion of patients with normal temperature, %: 100.0%
  The number of patients with normal temperature: 4
influenza; Morning Day 1
  Mean values of body temperature, M ± SD: 38.1 ± 0.82 °C
influenza; [3]
  Proportion of patients with normal temperature, %: 0%
  The number of patients with normal temperature: 0
influenza; Morning Day 2
  Mean values of body temperature, M ± SD: 37.3 ± 0.72 °C
  Proportion of patients with normal temperature, %: 36.4%
  The number of patients with normal temperature: 4
influenza; Morning Day 3
  Mean values of body temperature, M ± SD: 36.9 ± 0.47 °C
  Proportion of patients with normal temperature, %: 45.5%
  The number of patients with normal temperature: 5
influenza; Morning Day 4
  Mean values of body temperature, M ± SD: 36.8 ± 0.37 °C
  Proportion of patients with normal temperature, %: 90.9%
  The number of patients with normal temperature: 10
influenza; Morning Day 5
  Mean values of body temperature, M ± SD: 36.7 ± 0.25 °C
  Proportion of patients with normal temperature, %: 90.0%
  The number of patients with normal temperature: 9
influenza; Morning Day 6
  Mean values of body temperature, M ± SD: 36.6 ± 0.21 °C
  Proportion of patients with normal temperature, %: 100.0%
  The number of patients with normal temperature: 9
influenza; Morning Day 7
  Mean values of body temperature, M ± SD: 36.5 ± 0.10 °C
  Proportion of patients with normal temperature, %: 100.0%
  The number of patients with normal temperature: 5
influenza; Morning Day 8
  Mean values of body temperature, M ± SD: 36.5 ± 0.14 °C
  Proportion of patients with normal temperature, %: 100.0%
  The number of patients with normal temperature: 3
influenza; by the morning of Day 4 of the therapy
  mean number of antipyretic intakes: 7.4±0.90
influenza; influenza
  Bacterial complications, Otitis, %: 0/0%
  Bacterial complications, Pneumonia, %: 9.1%
  Bacterial complications, Total, %: 27.2%
  Bacterial complications, Tracheitis, %: 18.2%
